Experimental data published in US4908360A, “1-aminoalkyl-3-oxysubstituted-4-aryl-1,3,4,5-tetr ahydro-2H-1,3-benzodiazepine-2-ones” (Hoechst-Roussel Pharmaceuticals Inc., priority 1988, dated 1990).

Legend:
[1] = system: 2-phenyl-1,4-benzoquinone-induced writhing in mice; assay: 2-phenyl-1,4-benzoquinone-induced writhing test in mice (analgesia); format: in vivo; settings: subcutaneous
Excerpt: Compounds of the present invention are useful as analgesic agents due to their ability to alleviate pain in mammals. […] Exptl. Biol. Med. 95,729 (1957)].

[2] = target: T1, nitrendipine binding (ventricle membranes) (Rattus norvegicus, UniProt P22002); assay: nitrendipine binding assay (calcium ion antagonism), [3H]-nitrendipine, rat heart ventricle membranes; parameters: species or system Male Wistar rats; settings: 1 h, pH 7.4, 25° C., one hour; for Increase in [3H]-nitrendipine binding (%) at 20 µM: concentration 2.0 (moles) × 10^-5
T1 construct: These resuspension and recentrifugation steps are repeated twice more to wash the ventricle membranes; from tissue; host or cells: heart ventricle membranes of male Wistar rats
T1 sequence (P22002 whole entry, other chains not shown): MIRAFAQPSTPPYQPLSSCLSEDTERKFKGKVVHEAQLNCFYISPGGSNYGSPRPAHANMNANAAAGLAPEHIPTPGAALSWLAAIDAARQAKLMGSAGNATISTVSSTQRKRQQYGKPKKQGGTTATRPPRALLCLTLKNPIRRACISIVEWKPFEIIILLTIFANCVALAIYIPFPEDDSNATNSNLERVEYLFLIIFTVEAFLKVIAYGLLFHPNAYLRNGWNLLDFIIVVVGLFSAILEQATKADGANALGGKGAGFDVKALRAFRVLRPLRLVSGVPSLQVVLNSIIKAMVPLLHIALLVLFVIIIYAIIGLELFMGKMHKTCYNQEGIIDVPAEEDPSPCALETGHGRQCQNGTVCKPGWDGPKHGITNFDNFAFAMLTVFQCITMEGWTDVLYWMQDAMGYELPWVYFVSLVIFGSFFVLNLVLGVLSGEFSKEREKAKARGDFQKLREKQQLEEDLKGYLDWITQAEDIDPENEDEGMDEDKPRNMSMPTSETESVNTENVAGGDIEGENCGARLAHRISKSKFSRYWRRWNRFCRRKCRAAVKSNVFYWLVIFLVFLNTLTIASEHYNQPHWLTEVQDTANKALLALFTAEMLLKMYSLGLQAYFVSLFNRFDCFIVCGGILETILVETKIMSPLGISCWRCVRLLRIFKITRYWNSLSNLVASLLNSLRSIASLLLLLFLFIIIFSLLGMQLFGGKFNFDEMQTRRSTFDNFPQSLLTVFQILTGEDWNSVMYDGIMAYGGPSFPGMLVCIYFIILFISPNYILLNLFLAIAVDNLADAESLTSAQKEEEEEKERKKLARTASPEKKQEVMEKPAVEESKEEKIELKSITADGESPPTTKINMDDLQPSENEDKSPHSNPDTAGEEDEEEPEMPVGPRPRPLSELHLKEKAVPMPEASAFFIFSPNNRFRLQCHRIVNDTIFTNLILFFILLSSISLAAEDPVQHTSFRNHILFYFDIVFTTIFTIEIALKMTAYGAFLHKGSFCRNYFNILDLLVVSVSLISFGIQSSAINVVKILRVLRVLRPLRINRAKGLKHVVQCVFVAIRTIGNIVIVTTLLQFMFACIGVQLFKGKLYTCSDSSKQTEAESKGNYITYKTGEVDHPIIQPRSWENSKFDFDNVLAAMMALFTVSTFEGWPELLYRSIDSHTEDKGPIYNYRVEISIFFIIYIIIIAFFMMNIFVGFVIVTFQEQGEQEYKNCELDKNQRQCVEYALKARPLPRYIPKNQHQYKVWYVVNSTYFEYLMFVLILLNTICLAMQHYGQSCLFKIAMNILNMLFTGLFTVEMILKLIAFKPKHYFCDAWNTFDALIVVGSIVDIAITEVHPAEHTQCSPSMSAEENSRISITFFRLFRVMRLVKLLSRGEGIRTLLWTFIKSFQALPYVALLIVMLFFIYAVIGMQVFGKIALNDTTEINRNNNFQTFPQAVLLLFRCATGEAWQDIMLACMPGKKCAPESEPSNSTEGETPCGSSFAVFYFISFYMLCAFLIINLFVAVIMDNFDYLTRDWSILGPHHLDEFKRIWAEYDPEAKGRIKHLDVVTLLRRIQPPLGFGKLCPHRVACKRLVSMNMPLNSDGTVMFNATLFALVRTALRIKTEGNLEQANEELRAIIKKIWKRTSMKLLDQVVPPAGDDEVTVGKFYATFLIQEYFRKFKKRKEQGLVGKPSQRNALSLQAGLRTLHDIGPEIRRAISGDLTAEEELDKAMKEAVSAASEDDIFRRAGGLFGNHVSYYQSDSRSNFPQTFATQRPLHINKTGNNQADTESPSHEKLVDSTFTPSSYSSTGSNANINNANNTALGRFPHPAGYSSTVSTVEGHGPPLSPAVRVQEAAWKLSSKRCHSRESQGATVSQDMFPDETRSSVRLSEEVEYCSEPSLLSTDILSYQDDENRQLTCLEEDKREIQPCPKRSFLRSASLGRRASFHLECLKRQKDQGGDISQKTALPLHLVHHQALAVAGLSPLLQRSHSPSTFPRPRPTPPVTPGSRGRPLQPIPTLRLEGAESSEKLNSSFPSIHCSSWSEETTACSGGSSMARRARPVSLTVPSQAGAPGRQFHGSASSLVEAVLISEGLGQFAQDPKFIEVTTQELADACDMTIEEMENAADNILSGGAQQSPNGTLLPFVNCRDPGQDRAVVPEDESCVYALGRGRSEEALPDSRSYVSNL
T1 sequence (P54290 25-945 partner limits assumed, other chains not shown): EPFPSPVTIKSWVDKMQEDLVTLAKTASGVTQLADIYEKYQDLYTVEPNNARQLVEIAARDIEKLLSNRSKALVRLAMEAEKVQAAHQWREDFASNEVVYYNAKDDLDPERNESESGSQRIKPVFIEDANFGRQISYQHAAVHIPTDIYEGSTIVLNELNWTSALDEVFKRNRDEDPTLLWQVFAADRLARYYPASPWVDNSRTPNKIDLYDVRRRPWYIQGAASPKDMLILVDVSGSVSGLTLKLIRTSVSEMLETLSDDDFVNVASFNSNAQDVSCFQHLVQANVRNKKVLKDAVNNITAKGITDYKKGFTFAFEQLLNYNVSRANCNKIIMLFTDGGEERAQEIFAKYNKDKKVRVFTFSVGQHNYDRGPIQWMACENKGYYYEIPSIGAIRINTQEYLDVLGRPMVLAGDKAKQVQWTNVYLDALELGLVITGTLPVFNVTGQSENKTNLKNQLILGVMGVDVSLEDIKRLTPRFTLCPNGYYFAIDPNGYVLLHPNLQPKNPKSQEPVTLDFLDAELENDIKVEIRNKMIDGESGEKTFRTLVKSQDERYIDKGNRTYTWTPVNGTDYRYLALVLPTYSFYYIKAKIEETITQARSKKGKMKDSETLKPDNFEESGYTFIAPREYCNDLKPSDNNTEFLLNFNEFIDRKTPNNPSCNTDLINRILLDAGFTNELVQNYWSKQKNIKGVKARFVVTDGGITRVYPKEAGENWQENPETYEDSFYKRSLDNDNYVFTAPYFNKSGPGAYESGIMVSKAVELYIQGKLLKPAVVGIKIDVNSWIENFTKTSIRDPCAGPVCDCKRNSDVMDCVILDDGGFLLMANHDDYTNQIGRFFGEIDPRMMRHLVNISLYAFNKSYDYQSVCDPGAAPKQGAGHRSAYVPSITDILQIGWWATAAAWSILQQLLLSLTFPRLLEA
T1 sequence (P54290 946-1091 partner limits assumed, other chains not shown): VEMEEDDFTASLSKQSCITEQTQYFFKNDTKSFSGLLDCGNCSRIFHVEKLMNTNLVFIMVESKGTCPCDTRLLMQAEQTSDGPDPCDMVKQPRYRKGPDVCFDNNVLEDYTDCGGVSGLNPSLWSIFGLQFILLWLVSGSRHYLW
Experimental: The compounds of the present invention are also useful as calcium ion antagonists which are useful to control cardiovascular activities, including potential antihypertensive activity. Calcium ion antagonism is measured in the nitrendipine binding assay.
The nitrendipine binding assay is carried out in the following manner. The reagents employed are (1) 0.5 M tris Buffer, pH 7.4, prepared by combining 66.1 g of Tris HCl, 9.7 g of Tris base in 1 liter of distilled water and thereafter making a 1:10 dilution in distilled water; (2) [5-methyl-^3H]-Nitrendipine (70-81 Ci/mmol, obtained from New England Nuclear; and (3) Nifedipine. Tissue is prepared as follows. Male Wistar rats are killed by decapitation, hearts are removed and the ventricles are dissected away from the aorta and aortic tissue. The ventricles are rinsed and homogenized in 19 volumes of ice-cold 0.05 M Tris buffer, pH 7.4 using a Tekmar homogenizer. The homogenate is filtered through four layers of cheese cloth and centrifuged at 1,000 g for 10 minutes. The supernatant is decanted and recentrifuged at 48,000 g for 20 minutes. The resulting pellet is resuspended in the original volume of Tris buffer and recentrifuged at 48,000 g for 20 minutes. These resuspension and recentrifugation steps are repeated twice more to wash the ventricle membranes. The final pellet is resuspended in the original volume of 0.05 M Tris buffer. The assay itself employs 500 ul of ventricle membrane suspension; 50 ul of 0.5 M Tris buffer, pH 7.4; […] [^3 H]-nitrendipine; 20 μl of candidate drug; 380 μl of water in a test tube and is carried out in a darkened room. The test tubes are incubated for one hour at 25° C. […] The filters are washed three times with 5 ml of ice-cold 0.05 M Tris buffer, pH 7.4 and counted in 10 ml of Liquiscint scintillation cocktail. Specific binding is determined by the difference of total binding and binding in the presence of 0.1 μM nifedipine and is roughly 70-75% of the total binding. […] IC50 values for the competing drug are calculated by log-probit analysis of the data.

| Compound | Inhibition in Writhing (%) ([1]; 20 mg/kg of body weight) | Increase in [3H]-nitrendipine binding (%) at 20 µM [2] [%] | Inhibition in Writhing (%) ([1]; 15.1 mg/kg of body weight) | Increase in [3H]-nitrendipine binding (%) at 10 µM ([2]; concentration 1.0 (moles) × 10^-5, standard) [%] |
| --- | --- | --- | --- | --- |
| CON1C(=O)N(CCN(C)C)c2ccccc2CC1c1ccccc1 (racemic) [(±) -1-[2-(N,N-dimethylamino)ethyl]-3-methoxy-4-phenyl-1,3,4,5-tetrahydro-2H-1,3-benzodiazepine-2-one] | 37 | 27.6 | – | – |
| CON1C(=O)N(CCCN(C)C)c2ccccc2CC1c1ccccc1 (racemic) [(±) -1-[3-(N,N-Dimethylamino)propyl]-3-methoxy-4-phenyl-1,3,4,5-tetrahydro-2H-1,3-benzodiazepine-2-one] | 37 | 25.7 | – | – |
| CN1CC[C@@]23CCCC[C@@H]2[C@@H]1Cc1ccc(O)cc13 [dextrorphan, reference compound] | – | – | 50 | – |
| COc1ccc([C@@H]2Sc3ccccc3N(CCN(C)C)C(=O)[C@@H]2OC(C)=O)cc1 [diltiazem, reference compound] | – | – | – | 85 |
